The text below walks through data of patent US10024868B2, “Identification, optimization and use of shared HLA-B*0702 epitopes for immunotherapy” (Vaxon Biotech, priority 2009, dated 2018).

Assay [1] deals with T2-B7 targets loaded with peptide. Briefly: CTL induction in vivo in HLA-B*0702 transgenic mice, Cr51 cytotoxic assay. The following applies: for Immunogenicity: X mice developed a specific response for a total of Y mice vaccinated, 100 μg peptide subcutaneously in IFA; for Native peptide cross recognition, MAGE-A A / Native peptide cross recognition, MAGE-A I / Native peptide cross recognition, MAGE-A V: X/Y mice; for Native peptide cross recognition, MAGE-A A: CTL tested against T2-B7 targets loaded with native peptide MAGE-A A; for Native peptide cross recognition, MAGE-A I: CTL tested against T2-B7 targets loaded with native peptide MAGE-A I; for Native peptide cross recognition, MAGE-A V: CTL tested against T2-B7 targets loaded with native peptide MAGE-A V; for Cross recognition of the native peptides by induced CTLs (in words): target cells loaded with native cryptic peptides; for Immunogenicity (in words): vaccinated HLA-B*0702 transgenic mice. Here is the method: The HLA-B7 H-2 class-I knockout mice were previously described (Rohrlich et al., 2003).
CTL Induction In Vivo in HLA-B*0702 Transgenic Mice.
Mice were injected subcutaneously with 100 μg of peptide emulsified in Incomplete Freund's Adjuvant (IFA) in the presence of 150 μg of the I-A^b restricted HBVcore128 T helper epitope (TPPAYRPPNAPIL, SEQ ID NO: 173). After 11 days, 5×10^7 spleen cells were stimulated in vitro with peptide (10 μM). On day 6 of culture, the bulk responder populations were tested for specific cytotoxicity.
Targets were labelled with 100 μCi of Cr^51 for 60 min, plated in 96-well V-bottomed plates (3×10^3 cell/well in 100 μL of RPMI 1640 medium) and, when necessary, pulsed with peptides (1 μM) at 37° C. for 2 hours. Effectors were then added in the wells and incubated at 37° C. for 4 hours. Percentage of specific lysis was determined as: % Lysis=(Experimental Release−Spontaneous Release)/(Maximal Release−Spontaneous Release)×100.

The target of assay [2] is T1, HLA-B*0702 (Homo sapiens, UniProt P01889).
T1 construct: expressed in transfected cells; host or cells: human T2-B7 cells (T2 transfected with HLA-B*0702)
Description: Measurement of peptide relative affinity to HLA-B*0702 (T2-B7 cells, ME-1 mAb staining). It is filed as binding. The following applies: for RA (Relative Affinity to HLA-B*0702): concentration inducing 20% of HLA-B*0702 expression relative to reference peptide CMV265-274, T2-B7 cells, 16 hours, 37° C. Here is the method: Measurement of Peptide Relative Affinity to HLA-B*0702.
The protocol used has been described previously (Rohrlich et al., 2003). Briefly, T2-B7 cells were incubated at 37° C. for 16 hours with peptides concentrations ranging from 100 μM to 0.1 μM, and then stained with ME-1 monoclonal antibody (mAb) to quantify the surface expression of HLA-B*0702. For each peptide concentration, the HLA-B*0702 specific staining was calculated as the percentage of staining obtained with 100 μM of the reference peptide CMV265-274 (R10V; RPHERNGFTV, SEQ ID NO: 172). The relative affinity (RA) was determined as: RA=(Concentration of each peptide that induces 20% of HLA-B*0702-expression/Concentration of the reference peptide that induces 20% of HLA-B*0702 expression).

With “GPRALVETL (HLA-B7 restricted optimized peptide) [MAGE-A L9]”, in assay [1], the Immunogenicity was 18/18; the “Native peptide cross recognition, MAGE-A A” value is recorded as “MAGE-A A (3/8)”; the “Native peptide cross recognition, MAGE-A I” value is “MAGE-A I (3/5)”; the “Native peptide cross recognition, MAGE-A V” value is “MAGE-A V (4/5)”. In addition, in assay [1], the “Cross recognition of the native peptides by induced CTLs (in words)” value is “able to recognize a target cell loaded with each of the native cryptic peptides” and the “Immunogenicity (in words)” value is listed as “strongly immunogenic”.
As to “GPRALAETS (HLA-B7 restricted native peptide) [MAGE-A A]”, the “RA (Relative Affinity to HLA-B*0702)” value in assay [2] is given as “− ((−) means RA > 10)”.
As for “GPRALIETS (HLA-B7 restricted native peptide) [MAGE-A I]”, the “RA (Relative Affinity to HLA-B*0702)” value in assay [2] was “− ((−) means RA > 10)”.
“GPRALVETS (HLA-B7 restricted native peptide) [MAGE-A V]”: the “RA (Relative Affinity to HLA-B*0702)” value in assay [2] is on record as “− ((−) means RA > 10)”.
For the sequence APRALVETL (MAGE-A A1L9 peptide), in assay [2], the “Binding to HLA-B*0702 molecules (in words)” value was “able to bind to MHC” and the “RA (Relative Affinity to HLA-B*0702)” value is recorded as “+ ((+) 5 < RA < 10)”. Also, in assay [1], the Immunogenicity is 6/11; the “Native peptide cross recognition, MAGE-A A” value is on record as “MAGE-A A (1/8)”; the “Native peptide cross recognition, MAGE-A I” value is listed as “MAGE-A I (0/3)”; the “Native peptide cross recognition, MAGE-A V” value is listed as “MAGE-A V (0/3)”. Also, in assay [1], the “Cross recognition of the native peptides by induced CTLs (in words)” value is given as “not able to cross-recognize the native peptides” and the “Immunogenicity (in words)” value is “immunogenic”.
